Biological target: T1, Full-length, GST-tagged, human CaMKIIδ (Homo sapiens, UniProt Q13557)
T1 construct: Full-Length, Glutathione-S-Transferase(GST)-Tagged, Human CaMKIIδ was purchased from Carna Biosciences; purchased Carna Biosciences 02-111
Experiment: CaMKIIδ binding assay (TR-FRET with BODIPY-labeled probe ligand)
Details: CaMKIIδ binding assay, results of Table 2
How it was run: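 Compounds were tested as 4-fold, eight-point series for 1 hr at room temperature, and IC50 was obtained by logistic fitting against a 3 μM parent-compound control. Signal came from displacement of a 300 nM BODIPY ligand from 0.5 nM GST-CaMKIIδ, detected via Tb-anti-GST in calmodulin/Ca2+ (pH 7.6).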

T1 sequence (Q13557 1-478 isoform Q13557-12): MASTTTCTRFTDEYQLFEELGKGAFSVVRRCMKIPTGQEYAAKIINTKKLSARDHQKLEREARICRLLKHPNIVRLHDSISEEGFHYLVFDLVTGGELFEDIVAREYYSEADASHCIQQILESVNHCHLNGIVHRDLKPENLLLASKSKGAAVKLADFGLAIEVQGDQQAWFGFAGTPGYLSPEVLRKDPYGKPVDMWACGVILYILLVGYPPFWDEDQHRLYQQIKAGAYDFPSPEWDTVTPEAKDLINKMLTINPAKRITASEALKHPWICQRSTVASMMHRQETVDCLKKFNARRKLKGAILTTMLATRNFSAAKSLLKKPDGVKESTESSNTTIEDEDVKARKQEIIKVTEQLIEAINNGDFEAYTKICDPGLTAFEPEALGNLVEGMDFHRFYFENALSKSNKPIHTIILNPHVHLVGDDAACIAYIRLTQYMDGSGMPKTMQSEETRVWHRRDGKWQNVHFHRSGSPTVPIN

**Q.** With `COc1ccc(C(=O)N2C[C@@H](C)N[C@@H](C)C2)cc1Nc1ncc(-c2ccc(Cl)c(O[C@@H](C)Cn3cnnn3)c2)cn1` [Example 570, (3-((5-(3-(((S)-1-(1H-tetrazol-1-yl)propan-2-yl)oxy)-4-chlorophenyl)pyrimidin-2-yl)amino)-4-methoxyphenyl) (cis-3,5-dimethylpiperazin-1-yl)methanone] as the molecule, how does the IC50 read?
**A.** < 10 nM

**Q.** Which IC50 does the source give for `COc1cc2c(cc1Nc1ncc(-c3ccc(Cl)c(O[C@@H](C)Cn4cnnn4)c3)cn1)CCN(CCO)C2` [Example 480, (S)-2-(6-((5-(3-((1-(1H-tetrazol-1-yl)propan-2-yl)oxy)-4-chlorophenyl)pyrimidin-2-yl)amino)-7-methoxy-3,4-dihydroisoquinolin-2(1H)-yl)ethan-1-ol] here?
**A.** < 10 nM

**Q.** With `COc1cc2c(cc1Nc1ncc(-c3ccc(Cl)c(O[C@@H](C)Cn4cnnn4)c3)cn1)CCN(C(=O)CN(C)C)C2` [Example 459, (S)-1-(6-((5-(3-((1-(1H-tetrazol-1-yl)propan-2-yl)oxy)-4-chlorophenyl)pyrimidin-2-yl)amino)-7-methoxy-3,4-dihydroisoquinolin-2(1H)-yl)-2-(dimethylamino)ethan-1-one] as the molecule, how does the IC50 read?
**A.** < 10 nM

**Q.** How did the IC50 turn out when `C[C@@H](Cn1cnnn1)Oc1cc(-c2cnc(Nc3cc4c(cc3Cl)CCN(C(=O)C(F)(F)F)CC4)nc2)ccc1C#N` [Example 525, (S)-2-((1-(1H-tetrazol-1-yl)propan-2-yl)oxy)-4-(2-((8-chloro-3-(2,2,2-trifluoroacetyl)-2,3,4,5-tetrahydro-1H-benzo[d]azepin-7-yl)amino)pyrimidin-5-yl)benzonitrile] was run?
**A.** 10 to 100 nM

**Q.** Which IC50 does the source give for `COc1ccc(C(=O)O)cc1Nc1ncc(-c2ccc(Cl)c(O[C@@H](C)Cn3cnnn3)c2)cn1` [Example 540, (S)-3-((5-(3-((1-(1H-tetrazol-1-yl)propan-2-yl)oxy)-4-chlorophenyl)pyrimidin-2-yl)amino)-4-methoxybenzoic acid] here?
**A.** ≥ 100 nM

**Q.** With `COc1cc(C2CCCN(C3COC3)C2)ccc1Nc1ncc(-c2ccc(C#N)c(O[C@@H](C)Cn3cnnn3)c2)cn1` (stereo partly drawn) [Example 493, 2-(((S)-1-(1H-tetrazol-1-yl)propan-2-yl)oxy)-4-(2-((2-methoxy-4-(1-(oxetan-3-yl)piperidin-3-yl)phenyl)amino)pyrimidin-5-yl)benzonitrile] as the molecule, how does the IC50 read?
**A.** < 10 nM

**Q.** For `COc1cc(C2CCN(C3COC3)CC2)c(C)cc1Nc1ncc(-c2ccc(C#N)c(O[C@@H](C)Cn3cnnn3)c2)cn1` [Example 528, (S)-2-((1-(1H-tetrazol-1-yl)propan-2-yl)oxy)-4-(2-((2-methoxy-5-methyl-4-(1-(oxetan-3-yl)piperidin-4-yl)phenyl)amino)pyrimidin-5-yl)benzonitrile], which IC50 is on record?
**A.** < 10 nM

**Q.** `COc1cc2c(cc1Nc1ncc(-c3ccc(Cl)c(O[C@@H](C)Cn4cnnn4)c3)cn1)C(=O)N(CC1COC1)C2` [Example 445, (S)-6-((5-(3-((1-(1H-tetrazol-1-yl)propan-2-yl)oxy)-4-chlorophenyl)pyrimidin-2-yl)amino)-5-methoxy-2-(oxetan-3-ylmethyl)isoindolin-1-one] was tested. Which IC50 did it give?
**A.** 10 to 100 nM

**Q.** `C[C@@H](Cn1cnnn1)Oc1cc(-c2cnc(Nc3cn(C4CCN(Cc5ccccc5)CC4)nc3C(F)(F)F)nc2)ccc1Cl` [Example 548, (S)-5-(3-((1-(1H-tetrazol-1-yl)propan-2-yl)oxy)-4-chlorophenyl)-N-(1-(1-benzylpiperidin-4-yl)-3-(trifluoromethyl)-1H-pyrazol-4-yl)pyrimidin-2-amine] was tested. Which IC50 did it give?
**A.** < 10 nM

Same assay, conditions: CaMKIIδ binding assay; activity class per Table 2

**Q.** `C[C@H](Cn1cnnn1)Oc1cc(-c2cnc(Nc3cn([C@H]4CC[C@H](N5CCOCC5)CC4)nc3C(F)(F)F)nc2)ccc1Cl` [Example 893, 5-(3-(((R)-1-(1H-tetrazol-1-yl)propan-2-yl)oxy)-4-chlorophenyl)-N-(1-(trans-4-morpholinocyclohexyl)-3-(trifluoromethyl)-1H-pyrazol-4-yl)pyrimidin-2-amine] was tested. Which IC50 did it give?
**A.** 10 to 100 nM

**Q.** For `C[C@@H](Cn1cnnn1)Oc1cc(-c2cnc(Nc3cn(C4CC5(C4)CN(Cc4ncccn4)C5)nc3OCC(F)(F)F)nc2)ccc1Cl` [Example 984, (S)-5-(3-((1-(1H-tetrazol-1-yl)propan-2-yl)oxy)-4-chlorophenyl)-N-(1-(2-(pyrimidin-2-ylmethyl)-2-azaspiro[3.3]heptan-6-yl)-3-(2,2,2-trifluoroethoxy)-1H-pyrazol-4-yl)pyrimidin-2-amine], which IC50 is on record?
**A.** < 10 nM

**Q.** For `CCOC(=O)C1(n2cc(Nc3ncc(-c4ccc(Cl)c(O[C@@H](C)Cn5cnnn5)c4)cn3)c(OCC(F)(F)F)n2)CCC1` [Example 915, ethyl (S)-1-(4-((5-(3-((1-(1H-tetrazol-1-yl)propan-2-yl)oxy)-4-chlorophenyl)pyrimidin-2-yl)amino)-3-(2,2,2-trifluoroethoxy)-1H-pyrazol-1-yl)cyclobutane-1-carboxylate], which IC50 is on record?
**A.** < 10 nM

Same assay, conditions: Table 2; CaMKIIδ binding assay, activity given as class A/B/C

**Q.** For `C[C@@H](Cn1cnnn1)Oc1cc(-c2cnc(Nc3cn(C4CCN(C5CCOCC5)CC4)nc3OCCF)nc2)ccc1Cl` [Example 825, (S)-5-(3-((1-(1H-tetrazol-1-yl)propan-2-yl)oxy)-4-chlorophenyl)-N-(3-(2-fluoroethoxy)-1-(1-(tetrahydro-2H-pyran-4-yl)piperidin-4-yl)-1H-pyrazol-4-yl)pyrimidin-2-amine], which IC50 is on record?
**A.** < 10 nM

**Q.** `C[C@@H](Cn1cnnn1)Oc1cc(-c2cnc(Nc3cn(CCNC(=O)OC(C)(C)C)nc3C(F)(F)F)nc2)ccc1Cl` [Example 845, tert-butyl (S)-(2-(4-((5-(3-((1-(1H-tetrazol-1-yl)propan-2-yl)oxy)-4-chlorophenyl)pyrimidin-2-yl)amino)-3-(trifluoromethyl)-1H-pyrazol-1-yl)ethyl)carbamate] was tested. Which IC50 did it give?
**A.** 10 to 100 nM

**Q.** With `C[C@@H](Cn1cnnn1)Oc1cc(-c2cnc(Nc3cn([C@H]4CC[C@H](N5CCOCC5)CC4)nc3OCC(F)(F)F)nc2)ccc1F` [Example 813, 5-(3-(((S)-1-(1H-tetrazol-1-yl)propan-2-yl)oxy)-4-fluorophenyl)-N-(1-(trans-4-morpholinocyclohexyl)-3-(2,2,2-trifluoroethoxy)-1H-pyrazol-4-yl)pyrimidin-2-amine] as the molecule, how does the IC50 read?
**A.** < 10 nM

**Q.** How did the IC50 turn out when `C[C@@H](Cn1cnnn1)Oc1cc(-c2cnc(Nc3cn([C@H]4CC[C@@H](N5CC6(COC6)C5)CC4)nc3OCC(F)F)nc2)ccc1Cl` [Example 828, 5-(3-(((S)-1-(1H-tetrazol-1-yl)propan-2-yl)oxy)-4-chlorophenyl)-N-(1-(cis-4-(2-oxa-6-azaspiro[3.3]heptan-6-yl)cyclohexyl)-3-(2,2-difluoroethoxy)-1H-pyrazol-4-yl)pyrimidin-2-amine] was run?
**A.** < 10 nM

**Q.** Which IC50 does the source give for `C[C@@H](Cn1cnnn1)Oc1cc(-c2cnc(Nc3cn(C4CCN(C5CCOCC5)CC4)nc3OCC(F)F)nc2)ccc1Cl` [Example 792, (S)-5-(3-((1-(1H-tetrazol-1-yl)propan-2-yl)oxy)-4-chlorophenyl)-N-(3-(2,2-difluoroethoxy)-1-(1-(tetrahydro-2H-pyran-4-yl)piperidin-4-yl)-1H-pyrazol-4-yl)pyrimidin-2-amine] here?
**A.** < 10 nM

**Q.** How did the IC50 turn out when `C[C@@H](Cn1cnnn1)Oc1cc(-c2cnc(Nc3cn([C@H]4CC[C@H](N5CC(C)(O)C5)CC4)nc3C(F)(F)F)nc2)ccc1Cl` [Example 804, 1-(trans-4-(4-((5-(3-(((S)-1-(1H-tetrazol-1-yl)propan-2-yl)oxy)-4-chlorophenyl)pyrimidin-2-yl)amino)-3-(trifluoromethyl)-1H-pyrazol-1-yl)cyclohexyl)-3-methylazetidin-3-ol] was run?
**A.** < 10 nM

**Q.** `CCn1ncc(Nc2ncc(-c3ccc(Cl)c(O[C@@H](C)Cn4cnnn4)c3)cn2)c1C(=O)N1CCOCC1` [Example 865, (S)-(4-((5-(3-((1-(1H-tetrazol-1-yl)propan-2-yl)oxy)-4-chlorophenyl)pyrimidin-2-yl)amino)-1-ethyl-1H-pyrazol-5-yl)(morpholino)methanone] was tested. Which IC50 did it give?
**A.** ≥ 100 nM

**Q.** How did the IC50 turn out when `Cc1noc(C)c1Nc1ncc(-c2ccc(Cl)c(O[C@@H](C)Cn3cnnn3)c2)cn1` [Example 747, (S)-N-(5-(3-((1-(1H-tetrazol-1-yl)propan-2-yl)oxy)-4-chlorophenyl)pyrimidin-2-yl)-3,5-dimethylisoxazol-4-amine] was run?
**A.** 10 to 100 nM

Same assay, conditions: Table 2; activity class for CaMKIIδ

**Q.** Which IC50 does the source give for `COc1ccc(N2CCN(CC(N)=O)CC2)cc1Nc1ncc(-c2ccc(Cl)c(O[C@@H](C)Cn3cnnn3)c2)cn1` [Example 686, (S)-2-(4-(3-((5-(3-((1-(1H-tetrazol-1-yl)propan-2-yl)oxy)-4-chlorophenyl)pyrimidin-2-yl)amino)-4-methoxyphenyl)piperazin-1-yl)acetamide] here?
**A.** < 10 nM

**Q.** How did the IC50 turn out when `CCn1cc(Nc2ncc(-c3ccc(Cl)c(O[C@@H](C)Cn4cnnn4)c3)cn2)c(C2CC2)n1` [Example 642, (S)-5-(3-((1-(1H-tetrazol-1-yl)propan-2-yl)oxy)-4-chlorophenyl)-N-(3-cyclopropyl-1-ethyl-1H-pyrazol-4-yl)pyrimidin-2-amine] was run?
**A.** 10 to 100 nM

**Q.** `C[C@@H](Cn1cnnn1)Oc1cc(-c2cnc(Nc3cn(CCCO)nc3C(F)(F)F)nc2)ccc1Cl` [Example 718, (S)-3-(4-((5-(3-((1-(1H-tetrazol-1-yl)propan-2-yl)oxy)-4-chlorophenyl)pyrimidin-2-yl)amino)-3-(trifluoromethyl)-1H-pyrazol-1-yl)propan-1-ol] was tested. Which IC50 did it give?
**A.** 10 to 100 nM

**Q.** `COc1cc2c(cc1Nc1ncc(-c3ccc(C#N)c(O[C@@H](C)Cn4cnnn4)c3)cn1)NCCC2` [Example 590, (S)-2-((1-(1H-tetrazol-1-yl)propan-2-yl)oxy)-4-(2-((6-methoxy-1,2,3,4-tetrahydroquinolin-7-yl)amino)pyrimidin-5-yl)benzonitrile] was tested. Which IC50 did it give?
**A.** < 10 nM

**Q.** With `CCn1cc(Nc2ncc(-c3ccc(Cl)c(O[C@@H](C)Cn4cnnn4)c3)cn2)c(N2CCC2)n1` [Example 668, (S)-5-(3-((1-(1H-tetrazol-1-yl)propan-2-yl)oxy)-4-chlorophenyl)-N-(3-(azetidin-1-yl)-1-ethyl-1H-pyrazol-4-yl)pyrimidin-2-amine] as the molecule, how does the IC50 read?
**A.** ≥ 100 nM
